Measured values as given in article PMC5719405, “Sex-related pharmacokinetic differences and mechanisms of metapristone (RU486 metabolite)” (Scientific Reports, 2017).
Like-named read-outs stand apart in the source and are kept apart here.

How the values were obtained:
[1] = Single oral dose pharmacokinetics of metapristone in beagle dogs, non-compartmental analysis; format: in vivo; settings: for AUC(0-inf) / AUC(0-t) / CL/F / Cmax / Tmax / Vd/F / half-life / MRT last: beagle, dog, plasma, po; for MRT last: read-out: MRT (0-t)
Method: For pharmacokinetic study, rats were fasted overnight with free access to water using procedures reported previously. Ninety-six SD rats (forty-eight males and forty-eight females) were randomly divided into […] single-dose groups. Rats (six animals/sex/dose) were given a single oral dose of 22.5, 45 and 90 mg/kg metapristone (in soybean oil solution) by intragastric administration or 10 mg/kg metapristone by intravenous bolus injection. Rat blood samples (0.25 mL) were collected from the ocular vein into heparinized tubes prior to and at 0 (before administration), 0.5, 1.0, 1.5, 2.0, 4.0, 6.0, 8.0, 12, 24, 36 and 48 h post-dosing in female rats or 0.5, 1.0, 1.5, 2.0, 4.0, 6.0, 8.0, 12, 24, 30 and 36 h post-dosing in male rats. In the repeated dose study twenty-four rats (six animals/sex/dose) received the same dosing regimen at 45 mg/kg metapristone for 10 days. Blood samples were collected after oral administration on day 1 and 10 at T max. The samples were stored at −80 °C until analysis. Beagle dogs (three animals/sex/dose) were dosed by gavage at 5.62, 11.25, 22.5 mg/kg metapristone (in soybean oil solution). Dog blood (0.25 mL) was withdrawn from the jugular vein at 0.5, 1.0, 2.0, 4.0, 6.0, 8.0, 10, 12, 24 and 48 h after a single oral administration.
The plasma samples obtained by centrifugation at 4000 g for 10 min and stored at −80 °Cuntil analysis. To each 100 µL of plasma sample, 50 µL of internal standard solution were added. Metapristone was then separated and analyzed by the LC/MS/MS method according to the previously described procedures. Peak area ratios of metapristone to the internal standard were plotted against theoretical concentrations. The maximum plasma concentration (C max), the time to reach C max (T max) were determined directly from experimental data. The other pharmacokinetic parameters such as elimination half-life (t 1/2), and mean residence time (MRT) were calculated by using the non-compartmental pharmacokinetics data analysis software of DAS version 3.2 (Bio Guider Co., Shanghai, China). The area under the plasma concentration-time curve from zero to infinity was calculated by using the linear trapezoidal rule with extrapolation to infinity with terminal constant eliminate rate (k e). Bioavailability was calculated as (AUCp.o./AUCi.v.) x (dosei.v./ dosep.o.) 100% as we previously described.

[2] = biological target: T1, human CYP1A2 (Homo sapiens, UniProt P05177); test: Metapristone metabolism by cDNA-expressed recombinant human CYP1A2; format: in vitro ADME; settings: 9 µM
T1 construct: made in house; host or cells: insect cells
T1 sequence (P05177 1-516): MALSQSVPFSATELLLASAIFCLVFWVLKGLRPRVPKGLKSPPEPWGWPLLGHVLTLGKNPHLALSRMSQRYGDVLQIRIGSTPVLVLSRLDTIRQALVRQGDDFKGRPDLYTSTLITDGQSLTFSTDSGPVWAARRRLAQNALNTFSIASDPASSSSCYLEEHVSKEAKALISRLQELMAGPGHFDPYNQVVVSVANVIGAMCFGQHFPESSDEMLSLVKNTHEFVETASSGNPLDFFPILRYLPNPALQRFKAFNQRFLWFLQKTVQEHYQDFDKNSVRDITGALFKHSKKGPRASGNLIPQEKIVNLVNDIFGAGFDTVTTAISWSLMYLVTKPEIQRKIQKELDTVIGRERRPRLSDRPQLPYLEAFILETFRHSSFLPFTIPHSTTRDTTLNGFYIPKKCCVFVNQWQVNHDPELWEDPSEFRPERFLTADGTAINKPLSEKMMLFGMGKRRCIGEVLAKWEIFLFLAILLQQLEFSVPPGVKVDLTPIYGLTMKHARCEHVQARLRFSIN
Method: To identify CYP450 isomers which were responsible for the sex different metabolism of metapristone, both CYP450 inhibitors and cDNA-expressed recombinant human CYPs were used[11]. […] The reactions of the control groups with control rat liver microsomes (heated to 80 °C for 5 min to inactivate enzymes) to inactivate enzymes or without NADPH were also included. […] The cDNA-expressed recombinant human CYPs were prepared from insect cells transfected with cDNAs encoding for human CYP1A2 or CYP3A4. […] Each reaction was then started by the addition of metapristone (9 µM) with subsequent mixing of each sample by inversion. […] Metapristone were identified by the LC/MS/MS method. Peak areas formed were used for quantitative analyses. Control incubation mixtures included mixtures without inhibitors, and mixtures with untransfected insect cell microsomes used as microsomal control, and mixtures that contained methanol instead of inhibitor (methanol control). Quantitative analyses were performed by comparing the peak areas of the inhibition reactions to their respective methanol controls. The total organic solvent content of the in vitro reaction mixtures was less than 2%.

[3] = 5.62, 11.25 and 22.5 mg/kg p.o.

## CC#C[C@]1(O)CC[C@H]2[C@@H]3CCC4=CC(=O)CCC4=C3[C@@H](c3ccc(NC)cc3)C[C@@]21C [metapristone, N-monodemethyl mifepristone]
[1]; [3]
  C max and AUC in female dogs relative to male dogs (greater): 1–2.4 fold
  CL/F in female dogs relative to male dogs (lower): 1.5–3.6 fold
  V d /F in female dogs relative to male dogs (lower): 1.3–2.38 fold
[1]; female dogs, p.o. 5.6 mg/kg
  AUC(0-inf): 580 ± 120 ng·h/mL
  AUC(0-t): 560 ± 110 ng·h/mL
  CL/F: 165 mL/min/kg
  Cmax: 70 ± 10 ng/mL
  Tmax: 1.67 ± 0.57 h
  Vd/F: 126 ± 7.1 L/kg
  half-life: 8.05 ± 1.12 h
  MRT last: 7.23 ± 1.69 h
[1]; female dogs, p.o. 11.25 mg/kg
  AUC(0-inf): 1330 ± 110 ng·h/mL
  AUC(0-t): 1280 ± 100 ng·h/mL
  CL/F: 141 mL/min/kg
  Cmax: 190 ± 30 ng/mL
  Tmax: 1.67 ± 0.57 h
  Vd/F: 105 ± 9.17 L/kg
  half-life: 8.57 ± 1.12 h
  MRT last: 8.62 ± 0.56 h
[1]; female dogs, p.o. 22.5 mg/kg
  AUC(0-inf): 2560 ± 210 ng·h/mL
  AUC(0-t): 2400 ± 150 ng·h/mL
  CL/F: 147 mL/min/kg
  Cmax: 380 ± 10 ng/mL
  Tmax: 1.66 ± 0.57 h
  Vd/F: 89.2 ± 14.1 L/kg
  half-life: 7.19 ± 2.83 h
  MRT last: 7 ± 0.61 h
[1]; male dogs, p.o. 5.6 mg/kg
  AUC(0-inf): 230 ± 50 ng·h/mL
  AUC(0-t): 210 ± 30 ng·h/mL
  CL/F: 266 mL/min/kg
  Cmax: 50 ng/mL
  Tmax: 2 h
  Vd/F: 187 ± 8.21 L/kg
  half-life: 8.18 ± 2.9 h
  MRT last: 7.16 ± 1.12 h
[1]; male dogs, p.o. 11.25 mg/kg
  AUC(0-inf): 770 ± 110 ng·h/mL
  AUC(0-t): 750 ± 100 ng·h/mL
  CL/F: 241 mL/min/kg
  Cmax: 150 ± 30 ng/mL
  Tmax: 2 h
  Vd/F: 136 ± 13.1 L/kg
  half-life: 5.54 ± 2.3 h
  MRT last: 5.68 ± 1.1 h
[1]; male dogs, p.o. 22.5 mg/kg
  AUC(0-inf): 1600 ± 340 ng·h/mL
  AUC(0-t): 1560 ± 310 ng·h/mL
  CL/F: 210 mL/min/kg
  Cmax: 300 ± 20 ng/mL
  Tmax: 2 h
  Vd/F: 123 ± 15 L/kg
  half-life: 6.79 ± 2.81 h
  MRT last: 6.18 ± 0.34 h
[1]; p.o. 5.6 mg/kg
  increase of Cmax for female dogs versus male dogs: 40%
[2]; 120 min incubation with CYP1A2, absence of inhibitor
  metapristone remained: 47.9%
[2]; 120 min incubation with CYP1A2, plus α-naphthoflavone 10 µM
  metapristone survived: 89.9%
